The supplement of paper PMC9262897, “Low-cost anti-mycobacterial drug discovery using engineered E. coli” (Nature Communications, 2022)

Key:
E. coli TESEC Mtb Alr = experiment: growth (OD600 after 10 h, mean); higher = more growth
Experimental: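 TESEC Mtb Alr E. coli grown in a two-dimensional dilution series of drug (µM) and arabinose (12 to 1e8 nM). Growth is read as OD600 after 10 h; values are means of 3 biological replicates.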

∆mdtM = experiment: growth (OD600 after 24 h); higher = more growth
Experimental: (§1)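 E. coli BW25113 ΔaraC (Efflux+) or efflux-pump deletion strains (ΔtolC ΔentC, ΔemrE, ΔmdtI, ΔyeeO, ΔmdtK, ΔmdtM) diluted 1:100 in M9-based medium with a drug dilution series. Growth is read as OD600 after 24 h; 3 biological replicates.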

∆tolC ∆entC = experiment: growth (OD600 after 24 h); higher = more growth
Experimental: as §1

∆emrE = experiment: growth (OD600 after 24 h); higher = more growth
Experimental: as §1

∆yeeO = experiment: growth (OD600 after 24 h); higher = more growth
Experimental: as §1

∆mdtK = experiment: growth (OD600 after 24 h); higher = more growth
Experimental: as §1

∆mdtI = experiment: growth (OD600 after 24 h); higher = more growth
Experimental: as §1

Efflux+ = experiment: growth (OD600 after 24 h); higher = more growth
Experimental: as §1
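For growth (OD600 after 10 h, mean) in this document: E. coli lacking its native Alr, complemented by codon-optimized Mtb Alr under a feedback-controlled arabinose-inducible plasmid circuit, grown in defined medium.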

CCOC(=O)[C@H](CCc1ccccc1)N[C@H]1CCc2ccccc2N(CC(=O)O)C1=O [Benazepril]
E. coli TESEC Mtb Alr
Conditions | growth
drug 62.5 µM, arabinose 100000000 nM | 0.23
drug 125 µM, arabinose 12 nM | 0.279
drug 125 µM, arabinose 24 nM | 0.285
drug 125 µM, arabinose 48 nM | 0.275
drug 125 µM, arabinose 95 nM | 0.279
drug 125 µM, arabinose 191 nM | 0.275
drug 125 µM, arabinose 381 nM | 0.274
drug 125 µM, arabinose 763 nM | 0.278
drug 125 µM, arabinose 1526 nM | 0.275
drug 125 µM, arabinose 3052 nM | 0.279
drug 125 µM, arabinose 6104 nM | 0.277
drug 125 µM, arabinose 12207 nM | 0.288
drug 125 µM, arabinose 24414 nM | 0.297
drug 125 µM, arabinose 48828 nM | 0.359
drug 125 µM, arabinose 97656 nM | 0.376
drug 125 µM, arabinose 195312 nM | 0.327
drug 125 µM, arabinose 390625 nM | 0.289
drug 125 µM, arabinose 781250 nM | 0.281
drug 125 µM, arabinose 1562500 nM | 0.269
drug 125 µM, arabinose 3125000 nM | 0.255
drug 125 µM, arabinose 6250000 nM | 0.256
drug 125 µM, arabinose 12500000 nM | 0.256
drug 125 µM, arabinose 25000000 nM | 0.244
drug 125 µM, arabinose 50000000 nM | 0.243
drug 125 µM, arabinose 100000000 nM | 0.227
drug 250 µM, arabinose 1526 nM | 0.185
drug 250 µM, arabinose 3052 nM | 0.183
drug 250 µM, arabinose 6104 nM | 0.187
drug 250 µM, arabinose 12207 nM | 0.186

growth
Conditions | Efflux+ | ∆emrE | ∆mdtI | ∆mdtK | ∆mdtM | ∆tolC ∆entC | ∆yeeO
drug 62.5 µM | 1.02 | 1.18 | 0.992 | 0.937 | 0.822 | 0.756 | 0.887
drug 125 µM | 0.974 | 1.16 | 0.978 | 1.04 | 0.832 | 0.791 | 0.894
drug 250 µM | 0.962 | 1.09 | 0.979 | 1 | 0.807 | 0.8136 | 0.895
drug 500 µM | 0.969 | 1.08 | 0.983 | 1.01 | 0.827 | 0.8286 | 0.901
drug 1000 µM | 0.977 | 1.065 | 1 | 0.974 | 0.835 | 0.0672 | 0.91
drug 2000 µM | 1 | 1.14 | 1.009 | 0.856 | 0.833 | 0.0535 | 0.882
